Data as given in patent US20250171431A1, “HETEROCYCLIC INHIBITORS OF IGF-1R FOR TREATMENT OF DISEASE” (HORIZON THERAPEUTICS IRELAND DAC, priority 2023, published 2025).

Columns and labels:
IGF-1R [1] = molecular target: T1, IGF-1R (Homo sapiens (Human), UniProt P08069); assay: Example B-1: IGF-1R Assay (PC3 cells, IGF1 stimulation, AlphaLISA); type: cell-based; conditions: 200 ng/mL IGF1 stimulation, read-out: Biological Activity against IGF-1R IC50
How it was run: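 PC3 cells were serum-starved 2 h, treated with serially diluted compounds for 2 h, then stimulated with IGF1 (200 ng/mL final) for 30 min. Lysates were read by AlphaLISA; % inhibition was calculated relative to vehicle and EC80 controls, with IC50 values binned into ranges.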
Target sequence in this assay (P08069 31-1367): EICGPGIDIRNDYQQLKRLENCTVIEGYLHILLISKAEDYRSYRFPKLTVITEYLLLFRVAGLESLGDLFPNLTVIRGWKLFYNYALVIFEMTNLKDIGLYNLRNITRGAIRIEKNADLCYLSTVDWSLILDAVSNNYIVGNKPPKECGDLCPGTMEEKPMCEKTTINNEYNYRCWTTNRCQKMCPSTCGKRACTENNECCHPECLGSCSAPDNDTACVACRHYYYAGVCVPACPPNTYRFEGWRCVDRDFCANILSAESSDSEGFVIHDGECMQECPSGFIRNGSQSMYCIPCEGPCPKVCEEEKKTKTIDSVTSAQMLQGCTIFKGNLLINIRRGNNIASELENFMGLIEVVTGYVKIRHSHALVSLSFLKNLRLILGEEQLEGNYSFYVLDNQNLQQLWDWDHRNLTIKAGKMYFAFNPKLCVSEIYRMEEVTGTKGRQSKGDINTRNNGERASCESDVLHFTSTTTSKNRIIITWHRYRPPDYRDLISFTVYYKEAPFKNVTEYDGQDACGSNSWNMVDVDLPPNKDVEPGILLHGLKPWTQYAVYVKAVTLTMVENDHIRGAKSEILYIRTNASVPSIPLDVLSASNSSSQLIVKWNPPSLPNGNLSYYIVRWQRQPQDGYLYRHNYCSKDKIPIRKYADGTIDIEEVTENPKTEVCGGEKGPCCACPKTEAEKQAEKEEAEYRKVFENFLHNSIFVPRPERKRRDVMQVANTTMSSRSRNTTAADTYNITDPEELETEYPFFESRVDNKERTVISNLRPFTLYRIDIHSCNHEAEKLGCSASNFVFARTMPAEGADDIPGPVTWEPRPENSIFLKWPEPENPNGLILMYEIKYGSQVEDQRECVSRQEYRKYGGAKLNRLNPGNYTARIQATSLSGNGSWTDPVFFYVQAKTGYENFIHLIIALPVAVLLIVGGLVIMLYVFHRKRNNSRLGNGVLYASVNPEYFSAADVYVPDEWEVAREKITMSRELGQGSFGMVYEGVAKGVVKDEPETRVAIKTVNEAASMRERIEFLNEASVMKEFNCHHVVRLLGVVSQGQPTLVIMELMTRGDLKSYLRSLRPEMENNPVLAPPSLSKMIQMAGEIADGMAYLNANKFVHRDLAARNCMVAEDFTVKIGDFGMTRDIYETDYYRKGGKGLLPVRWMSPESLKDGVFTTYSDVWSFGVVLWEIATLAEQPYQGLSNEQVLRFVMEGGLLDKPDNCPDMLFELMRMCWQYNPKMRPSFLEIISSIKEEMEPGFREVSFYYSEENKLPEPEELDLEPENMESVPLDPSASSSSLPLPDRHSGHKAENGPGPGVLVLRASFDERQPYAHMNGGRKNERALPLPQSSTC

IGF-1R [2] = molecular target: T1, IGF-1R; assay: Example B-2: IGF-1R Assay (PathHunter cell lines, EC80 agonist challenge); type: cell-based; conditions: read-out: IC50 (Biological Activity against IGF-1R)
Method: PathHunter cell lines were expanded from freezer stocks according to standard procedures. Cells were seeded in a total volume of 20 μL into white walled, 384-well microplates and incubated for the appropriate time prior to testing.
Cells are pre-incubated with compound followed by EC80 agonist challenge as follows: • 1. Intermediate dilution of sample stocks was performed to generate 5× sample in assay buffer. • 2. 5 μL of 5× sample was added to cells and incubated at 37° C. for 60 minutes. Vehicle concentration was 1%. • 3. 5 μL of 6×EC80 agonist in assay buffer was added to the cells and incubated at room temperature for 3 hours.
Assay signal was generated through a single addition of 12.5 or 15 μL (50% v/v) of PathHunter Detection reagent cocktail for agonist and antagonist assays respectively, followed by a one hour incubation at room temperature. Microplates were read following signal generation with a PerkinElmer Envision™ instrument for chemilumine-scent signal detection.
Compound activity was analyzed using CBIS data analysis suite (ChemInnovation, CA). Percentage inhibition was calculated using the following formula: % Inhibition=100%×(1−(mean RLU of test sample−mean RLU of vehicle control)/(mean RLU of EC80 control−mean RLU of vehicle control)). The activity for representative examples of the invention is shown in the following table, wherein A: IC50≤500 nM; B: 500 nM<IC50≤2 μM; C: […]≤10 μM; D: IC50>[…].
Target sequence in this assay (P08069 31-1367, species assumed): as the sequence (P08069 31-1367) above

IC50 (IGF-1R [1]) [nM] | IC50 (IGF-1R [2]) [nM] | Compound
≤ 500 | ≤ 500 | CN1CC(N2CCc3ccc(Nc4nccc(Nc5cnc6ccccc6c5)n4)cc32)C1 [Compound 139, N2-(1-(1-methylazetidin-3-yl)indolin-6-yl)-N4-(quinolin-3-yl)pyrimidine-2,4-diamine]
≤ 500 | 500 to 2000 | COc1cc(Nc2nccc(Nc3cc4cccc(F)c4[nH]c3=O)n2)cnc1N1CCC(C)(O)CC1 [Compound 159, 8-fluoro-3-((2-((6-(4-hydroxy-4-methylpiperidin-1-yl)-5-methoxypyridin-3-yl)amino)pyrimidin-4-yl)amino)quinolin-2(1H)-one]
500 to 2000 | 500 to 2000 | CN(C)CC1COc2cc(Nc3nccc(Nc4cnc5cc(F)c(F)cc5c4)n3)cnc2O1 (stereo not drawn) [Compound 499, 4-(6,7-difluoro-3-quinolylamino)-2-{3-[(dimethylamino)methyl]-2,3-dihydro-1,4-dioxa-5-aza-7-naphthylamino}pyrimidine]
≤ 500 | ≤ 500 | CN(C)CC(=O)N1CCc2ccc(Nc3nccc(Nc4cnc5ccccc5c4)n3)cc21 [Compound 92, 2-(dimethylamino)-1-{6-[4-(3-quinolylamino)-2-pyrimidinylamino]-1-indolinyl}-1-ethanone]
≤ 500 | ≤ 500 | CN(C)CC(=O)N1CCc2ccc(Nc3nccc(Nc4cnc5ccc(Br)cc5c4)n3)cc21 [Compound 130, 1-(6-((4-((6-bromoquinolin-3-yl)amino)pyrimidin-2-yl)amino)indolin-1-yl)-2-(dimethylamino)ethan-1-one]
≤ 500 | ≤ 500 | CN(C)CCN1CCc2ccc(Nc3nccc(Nc4cnc5ccccc5c4)n3)cc21 [Compound 143, N2-(1-(2-(dimethylamino)ethyl)indolin-6-yl)-N4-(quinolin-3-yl)pyrimidine-2,4-diamine]
2000 to 10000 | 500 to 2000 | CN(C)CC1COc2ncc(Nc3nccc(Nc4cnc5ccc(Cl)cc5c4)n3)cc2O1 (stereo not drawn) [Compound 500, 4-(6-chloro-3-quinolylamino)-2-{2-[(dimethylamino)methyl]-2,3-dihydro-1,4-dioxa-5-aza-7-naphthylamino}pyrimidine]
500 to 2000 | 500 to 2000 | CN(C)CC(=O)N1CCc2ccc(Nc3nccc(Nc4cnc5cc(F)c(F)cc5c4)n3)cc21 [Compound 147, 1-(6-((4-((6,7-difluoroquinolin-3-yl)amino)pyrimidin-2-yl)amino)indolin-1-yl)-2-(dimethylamino)ethan-1-one]
≤ 500 | ≤ 500 | COc1cc([C@H]2CC[C@@](C)(O)CC2)ccc1Nc1nccc(Nc2cc3cccc(F)c3[nH]c2=O)n1 [Compound 216, 8-fluoro-3-(2-{2-methoxy-4-[(1r,4r)-4-hydroxy-4-methylcyclohexyl]phenylamino}-4-pyrimidinylamino)-1,2-dihydro-2-quinolinone]
≤ 500 | 500 to 2000 | COc1cc(C2CCOCC2)ccc1Nc1nccc(Nc2cc3cccc(F)c3[nH]c2=O)n1 [Compound 220, 8-fluoro-3-{2-[2-methoxy-4-(tetrahydro-2H-pyran-4-yl)phenylamino]-4-pyrimidinylamino}-1,2-dihydro-2-quinolinone]
≤ 500 | ≤ 500 | COc1cc([C@H]2CC[C@](C)(O)CC2)ccc1Nc1nccc(Nc2cc3cccc(F)c3[nH]c2=O)n1 [Compound 215, 8-fluoro-3-(2-{2-methoxy-4-[(1s,4s)-4-hydroxy-4-methylcyclohexyl]phenylamino}-4-pyrimidinylamino)-1,2-dihydro-2-quinolinone]
≤ 500 | ≤ 500 | COc1cc(Nc2nccc(Nc3cnc4ccccc4c3)n2)ccc1N1CCN(C)CC1 [Compound 94, 2-[3-methoxy-4-(4-methyl-1-piperazinyl)phenylamino]-4-(3-quinolylamino)pyrimidine]
≤ 500 | ≤ 500 | CN(C)CC(=O)N1CCOc2ccc(Nc3nccc(Nc4cnc5cc(F)c(F)cc5c4)n3)cc21 [Compound 149, 1-(6-((4-((6,7-difluoroquinolin-3-yl)amino)pyrimidin-2-yl)amino)-2,3-dihydro-4H-benzo[b][1.4]oxazin-4-yl)-2-(dimethylamino)ethan-1-one]
≤ 500 | ≤ 500 | CN(C)CC1COc2cc(Nc3nccc(Nc4cnc5ccc(Cl)cc5c4)n3)cnc2O1 (stereo not drawn) [Compound 177, 4-(6-chloro-3-quinolylamino)-2-{3-[(dimethylamino)methyl]-2,3-dihydro-1,4-dioxa-5-aza-7-naphthylamino}pyrimidine]
≤ 500 | 500 to 2000 | COc1cc(N2CCN(C)CC2)ccc1Nc1nccc(Nc2cnc3ccc(Br)cc3c2)n1 [Compound 466, 4-(6-bromo-3-quinolylamino)-2-[2-methoxy-4-(4-methyl-1-piperazinyl)phenylamino] pyrimidine]
≤ 500 | ≤ 500 | CN(C)CC(=O)N1CCc2ncc(Nc3nccc(Nc4cnc5ccc(Cl)cc5c4)n3)cc21 [Compound 141, 1-(6-((4-((6-chloroquinolin-3-yl)amino)pyrimidin-2-yl)amino)-2,3-dihydro-1H-pyrrolo[3,2-b]pyridin-1-yl)-2-(dimethylamino)ethan-1-one]
≤ 500 | ≤ 500 | CN(C)C[C@H]1COc2cc(Nc3nccc(Nc4cnc5ccc(Cl)cc5c4)n3)ccc2O1 [Compound 144, (S)—N4-(6-chloroquinolin-3-yl)-N2-(2-((dimethylamino)methyl)-2,3-dihydrobenzo[b][1,4]dioxin-6-yl)pyrimidine-2,4-diamine]
≤ 500 | ≤ 500 | COc1cc(C2CCN(CC#N)CC2)ncc1Nc1nccc(Nc2cc3cccc(F)c3[nH]c2=O)n1 [Compound 211, (4-{5-[4-(8-fluoro-2-oxo-1,2-dihydro-3-quinolylamino)-2-pyrimidinylamino]-4-methoxy-2-pyridyl}-1-piperidyl)acetonitrile]
≤ 500 | ≤ 500 | COc1cc(Nc2nccc(Nc3cnc4ccccc4c3)n2)ccc1O[C@H]1CC[C@H](N(C)C)CC1 [Compound 17, 2-{3-methoxy-4-[(1r,4r)-4-(dimethylamino)cyclohexyloxy]phenylamino}-4-(3-quinolylamino)pyrimidine]
≤ 500 | ≤ 500 | CN(C)C[C@@H]1COc2cc(Nc3nccc(Nc4cnc5ccc(Cl)cc5c4)n3)ccc2O1 [Compound 145, (R)—N4-(6-chloroquinolin-3-yl)-N2-(2-((dimethylamino)methyl)-2,3-dihydrobenzo[b][1,4]dioxin-6-yl)pyrimidine-2,4-diamine]
2000 to 10000 | 2000 to 10000 | c1ccc2ncc(Nc3ccnc(Nc4ccc5ccn(CC6CCCCC6)c5c4)n3)cc2c1 [Compound 503, 2-[1-(cyclohexylmethyl)-6-indolylamino]-4-(3-quinolylamino)pyrimidine]

Compound | IC50 (IGF-1R [1]) [nM] | IC50 (IGF-1R [2]) [nM]
COc1cc(Nc2nccc(Nc3cnc4c(c3)OCCO4)n2)ccc1O[C@H]1C[C@@H](N(C)C)C1 [Compound 200, 4-(2,3-dihydro-1,4-dioxa-5-aza-7-naphthylamino)-2-{3-methoxy-4-[(1s,3s)-3-(dimethylamino)cyclobutoxy]phenylamino}pyrimidine] | ≤ 500 | ≤ 500
COc1cc(Nc2nccc(Nc3cnc4c(F)c(F)ccc4c3)n2)cnc1O[C@H]1C[C@@H](N(C)C)C1 [Compound 291, 4-(7,8-difluoro-3-quinolylamino)-2-{5-methoxy-6-[(1s,3s)-3-(dimethylamino)cyclobutoxy]-3-pyridylamino}pyrimidine] | ≤ 500 | 500 to 2000
COc1cc(Nc2nccc(Nc3cnc4c(c3)CCC3(CCC3)C4)n2)ccc1O[C@H]1C[C@H](N(C)C)C1 [Compound 77, 4-(6′,8′-dihydro-5′H-spiro[cyclobutane-1,7′-quinolin]-3′-ylamino)-2-{3-methoxy-4-[(1r,3r)-3-(dimethylamino)cyclobutoxy]phenylamino}pyrimidine] | ≤ 500 | ≤ 500
COc1cc(Nc2nccc(Nc3cc4cc(Cl)ccc4[nH]c3=O)n2)ccc1O[C@H]1C[C@H](N(C)C)C1 [Compound 109, 6-chloro-3-(2-{3-methoxy-4-[(1r,3r)-3-(dimethylamino)cyclobutoxy]phenyl-amino}-4-pyrimidinylamino)-1,2-dihydro-2-quinolinone] | ≤ 500 | 500 to 2000
COc1cc(Nc2nccc(Nc3cnc4ccc(Cl)nc4c3)n2)ccc1O[C@H]1C[C@@H](N(C)C)C1 [Compound 10, 4-(6-chloro-1,5-diaza-3-naphthylamino)-2-{3-methoxy-4-[(1s,3s)-3-(dimethylamino)cyclobutoxy]phenylamino}pyrimidine] | ≤ 500 | 500 to 2000
COc1cc(Nc2nccc(Nc3cnc4cc(F)c(F)cc4c3)n2)ccc1O[C@H]1C[C@@H](N(C)C)C1 [Compound 115, 4-(6,7-difluoro-3-quinolylamino)-2-{3-methoxy-4-[(1s,3s)-3-(dimethylamino)cyclobutoxy]phenylamino}pyrimidine] | ≤ 500 | 500 to 2000
